Among the data in ChEMBL document CHEMBL4118066, “QSAR-driven design, synthesis and discovery of potent chalcone derivatives with antitubercular activity” (Eur J Med Chem, 2017) are MIC90 and selectivity ratio values, retold here.

Converted amounts (≈) assume the structure as drawn. A value given as a limit tells only on which side of the number the result lay.

One series has as its system Escherichia coli. Kind of series: Antibacterial activity against Escherichia coli ATCC 25922 after 16 to 20 hrs. Type of series: functional.
The next series has as its system Staphylococcus aureus. Kind of series: Antibacterial activity against Staphylococcus aureus ATCC 29213 after 16 to 20 hrs. Type of series: functional.
A further series is described as follows: in vitro. To be noted: monkey.
In the next series the test system is Candida albicans. The series is described as follows: Antifungal activity against Candida albicans ATCC 90028 after 36 to 48 hrs. The class given is functional.
The test system of series [1] is Mycobacterium tuberculosis. The series is described as follows: Antitubercular activity against Mycobacterium tuberculosis H37Rv ATCC 27294 treated for 10 days under hypoxic condition followed by 28 hrs of normoxic recovery. The class given is functional.
Series [2] has as its system Mycolicibacterium smegmatis. The series is described as follows: Antimycobacterial activity against Mycobacterium smegmatis ATCC MC2155 after 7 days under normoxic condition by microplate Alamar blue assay. Type of series: functional. To be noted: str. MC2 155, 168 h. On the technique in general: Alamar Blue is a resazurin reagent that responds to reducing activity.
In series [3] the test system is Mycobacterium tuberculosis. Kind of series: microbe, parasite or virus in culture. The class given is functional. The note with it: H37Rv ATCC 27294, 168 h.
Description: Antitubercular activity against Mycobacterium tuberculosis H37Rv ATCC 27294 after 7 days under normoxic condition by microplate Alamar blue assay
Another series has as its system Mycobacteroides chelonae. Kind of series: Antimycobacterial activity against Mycobacterium chelonae ATCC 35752 after 7 days under normoxic condition by microplate Alamar blue assay. The class given is functional. To be noted: ATCC 35752, 168 h.
Series [4] deals with Mycobacteroides abscessus. Kind of series: Antimycobacterial activity against Mycobacterium abscessus ATCC 19977 after 7 days under normoxic condition by microplate Alamar blue assay. To be noted: ATCC 19977, 168 h. The class given is functional.
Another series concerns Mycobacterium marinum. Kind of series: Antimycobacterial activity against Mycobacterium marinum ATCC 927 after 7 days under normoxic condition by microplate Alamar blue assay. The class given is functional. To be noted: ATCC 927, 168 h.
Another series relates to Mycobacterium kansasii. Kind of series: Antimycobacterial activity against Mycobacterium kansasii ATCC 12478 after 7 days under normoxic condition by microplate Alamar blue assay. The note with it: ATCC 12478, 168 h. Type of series: functional.
In a further series the test system is Mycobacterium avium. The series is described as follows: Antimycobacterial activity against Mycobacterium avium ATCC 15769 after 7 days under normoxic condition by microplate Alamar blue assay. Type of series: functional. To be noted: ATCC 15769, 168 h.

Description for in vitro: Selectivity index, ratio of IC50 for African green monkey Vero cells to MIC90 for Mycobacterium tuberculosis H37Rv ATCC 27294 under normoxic condition

For the molecule `O=C(/C=C/c1ccc([N+](=O)[O-])o1)c1ccc(N2CCNCC2)cc1`, the MIC90 in the series on Escherichia coli is more than 10 µM; with Staphylococcus aureus, more than 10 µM; against Candida albicans, more than 10 µM; in series [1] it was 9.67 µM (≈ 3.17 µg/mL); in [2], more than 10 µM; in series [3] it was 0.27 µM (≈ 0.0884 µg/mL). Moreover, the selectivity ratio in “in vitro” (Vero cells) came to 359.
Consider `CC(C)(C)c1ccc(C(=O)/C=C/c2ccc([N+](=O)[O-])o2)cc1`, for which the MIC90 in the series on Escherichia coli is more than 10 µM; in the series on Staphylococcus aureus, more than 10 µM; in the series with Candida albicans, more than 10 µM; in series [1] it was more than 10 µM; in series [2] it was more than 10 µM; in series [3] it was 0.35 µM (≈ 0.105 µg/mL). Further, the selectivity ratio in the series “in vitro” (Vero cells) is 284.
As to `O=C(/C=C/c1ccc([N+](=O)[O-])s1)c1ccc(N2CCOCC2)cc1`, the MIC90 (against Escherichia coli; in the series on Staphylococcus aureus; in the series with Mycobacteroides chelonae; against Candida albicans; in series [4]; in series [1]) was more than 10 µM each time. Further, the MIC90 is more than 10 µM in series [2]; more than 10 µM in the series with Mycobacterium marinum; 8.27 µM (≈ 2.85 µg/mL) with Mycobacterium kansasii; more than 10 µM in series [3]; more than 10 µM with Mycobacterium avium.
As for `O=C(/C=C/c1ccc([N+](=O)[O-])o1)c1ccc(N2CCCC2)cc1`, the MIC90 is more than 10 µM in the series with Escherichia coli; more than 10 µM in the series with Staphylococcus aureus; more than 10 µM against Mycobacteroides chelonae; more than 10 µM in the series on Candida albicans; more than 10 µM in [4]; 4.3 µM (≈ 1.34 µg/mL) in [1]. Besides, the MIC90 in series [2] was more than 10 µM; in the series with Mycobacterium marinum, more than 10 µM; in the series with Mycobacterium kansasii, 0.39 µM (≈ 0.122 µg/mL); in series [3], more than 10 µM; in the series on Mycobacterium avium it was more than 10 µM.
As to `O=C(/C=C/c1ccco1)c1ccc(N2CCCCC2)cc1`, the MIC90 (in the series on Escherichia coli; with Staphylococcus aureus; against Mycobacteroides chelonae; with Candida albicans; in series [4]; in series [1]) was more than 10 µM each time. For the same molecule, the MIC90 (in [2]; against Mycobacterium marinum; against Mycobacterium kansasii; in series [3]; in the series on Mycobacterium avium) was more than 10 µM throughout.
On to `CN(C)c1ccc(/C=C/C(=O)c2ccc(-c3ccccc3)cc2)cc1`, for which the MIC90 (against Escherichia coli; with Staphylococcus aureus; against Mycobacteroides chelonae; against Candida albicans; in [4]; in [1]) was more than 10 µM throughout. Besides, the MIC90 (in [2]; against Mycobacterium marinum; in the series with Mycobacterium kansasii; in series [3]; with Mycobacterium avium) was more than 10 µM throughout.
Turning to `CC(C)(C)c1ccc(C(=O)/C=C/c2ccc[nH]2)cc1`, the MIC90 (in the series on Escherichia coli; with Staphylococcus aureus; in the series with Mycobacteroides chelonae; against Candida albicans; in series [4]; in series [1]) was more than 10 µM each time. For the same molecule, the MIC90 (in [2]; against Mycobacterium marinum; in the series on Mycobacterium kansasii; in series [3]; against Mycobacterium avium) was more than 10 µM in each case.
`O=C(/C=C/c1ccc([N+](=O)[O-])o1)c1ccc(-n2ccnc2)cc1`: the MIC90 with Escherichia coli was 3.18 µM (≈ 0.984 µg/mL); with Staphylococcus aureus, 0.34 µM (≈ 0.105 µg/mL); in the series with Candida albicans it was more than 10 µM; in series [1] it was 6.94 µM (≈ 2.15 µg/mL); in series [2], more than 10 µM; in [3], 1.05 µM (≈ 0.325 µg/mL). For the same molecule, the selectivity ratio in the series “in vitro” (Vero cells) is 94.
For `C[C@@H]1[C@H](O)[C@@H](C)/C=C/C=C/C=C/C=C/C=C/C=C/C=C/[C@H](O[C@@H]2O[C@H](C)[C@@H](O)[C@H](N)[C@@H]2O)C[C@@H]2O[C@](O)(C[C@@H](O)C[C@@H](O)[C@H](O)CC[C@@H](O)C[C@@H](O)CC(=O)O[C@H]1C)C[C@H](O)[C@H]2C(=O)O` [AMPHOTERICIN B], the MIC90 against Candida albicans was less than 0.004 µM.
For `COc1ccc(/C=C/C(=O)c2ccc(-c3ccccc3)cc2)cc1`, the MIC90 with Escherichia coli is more than 10 µM; with Staphylococcus aureus it was 1.18 µM (≈ 0.371 µg/mL); with Mycobacteroides chelonae it was more than 10 µM; against Candida albicans it was more than 10 µM; in [4], more than 10 µM; in series [1] it was more than 10 µM. Also, the MIC90 (in series [2]; in the series with Mycobacterium marinum; in the series with Mycobacterium kansasii; in [3]; in the series on Mycobacterium avium) was more than 10 µM throughout.
As to `O=C(/C=C/c1ccc(Cl)s1)c1ccc(-n2ccnc2)cc1`, the MIC90 in the series on Escherichia coli is more than 10 µM; against Staphylococcus aureus it was more than 10 µM; against Mycobacteroides chelonae it was more than 10 µM; against Candida albicans, more than 10 µM; in [4] it was more than 10 µM; in [1], 9.75 µM (≈ 3.07 µg/mL). Further, the MIC90 in [2] was more than 10 µM; in the series with Mycobacterium marinum it was more than 10 µM; in the series on Mycobacterium kansasii it was 9.17 µM (≈ 2.89 µg/mL); in [3], 9.29 µM (≈ 2.92 µg/mL); against Mycobacterium avium it was more than 10 µM.
With `NNC(=O)c1ccncc1` [ISONIAZID], the MIC90 in [1] is more than 256 µM; in [2], more than 10 µM; in series [3], 0.41 µM (≈ 0.0562 µg/mL).
`Cc1ccc(C(=O)/C=C/c2ccc([N+](=O)[O-])s2)cc1`: the MIC90 against Escherichia coli is more than 10 µM; in the series on Staphylococcus aureus it was more than 10 µM; in the series with Mycobacteroides chelonae, more than 10 µM; in the series on Candida albicans, more than 10 µM; in [4] it was more than 10 µM; in [1] it was 2.05 µM (≈ 0.56 µg/mL). For the same molecule, the MIC90 is more than 10 µM in series [2]; more than 10 µM in the series on Mycobacterium marinum; 1.54 µM (≈ 0.421 µg/mL) against Mycobacterium kansasii; 1.87 µM (≈ 0.511 µg/mL) in [3]; 2.3 µM (≈ 0.629 µg/mL) in the series with Mycobacterium avium.
For `O=C(/C=C/c1ccc([N+](=O)[O-])o1)c1ccc(Br)cc1`, the MIC90 against Escherichia coli is more than 10 µM; in the series on Staphylococcus aureus it was 0.36 µM (≈ 0.116 µg/mL); in the series with Candida albicans, 4.93 µM (≈ 1.59 µg/mL); in series [1] it was 6.76 µM (≈ 2.18 µg/mL); in series [2] it was 7.12 µM (≈ 2.29 µg/mL); in series [3] it was 2.5 µM (≈ 0.805 µg/mL).
Regarding `O=C(/C=C/c1ccc([N+](=O)[O-])s1)c1ccc(C2CCCCC2)cc1`, the MIC90 was more than 10 µM with Escherichia coli; more than 10 µM against Staphylococcus aureus; more than 10 µM against Mycobacteroides chelonae; more than 10 µM against Candida albicans; more than 10 µM in series [4]; 5.75 µM (≈ 1.96 µg/mL) in series [1]. Moreover, the MIC90 in series [2] is more than 10 µM; against Mycobacterium marinum, more than 10 µM; in the series on Mycobacterium kansasii, 9.26 µM (≈ 3.16 µg/mL); in series [3], more than 10 µM; against Mycobacterium avium, 5.99 µM (≈ 2.05 µg/mL).
As to `CC(C)(C)c1ccc(C(=O)/C=C/c2ccco2)cc1`, the MIC90 (with Escherichia coli; with Staphylococcus aureus; with Mycobacteroides chelonae; against Candida albicans; in series [4]; in series [1]) was more than 10 µM each time. For the same molecule, the MIC90 (in series [2]; against Mycobacterium marinum; in the series with Mycobacterium kansasii; in [3]; against Mycobacterium avium) was more than 10 µM in each case.
Consider `O=C(/C=C/c1ccc([N+](=O)[O-])cc1)c1ccc(N2CCCCC2)cc1`, for which the MIC90 (with Escherichia coli; with Staphylococcus aureus; against Mycobacteroides chelonae; in the series on Candida albicans; in series [4]; in series [1]) was more than 10 µM throughout. The MIC90 (in series [2]; against Mycobacterium marinum; with Mycobacterium kansasii; in series [3]; against Mycobacterium avium) was more than 10 µM each time.
On to `O=C(/C=C/c1ccc([N+](=O)[O-])o1)c1ccc(N2CCCCC2)cc1`, for which the MIC90 in the series on Escherichia coli was more than 10 µM; against Staphylococcus aureus, more than 10 µM; with Candida albicans, more than 10 µM; in series [1] it was 10.9 µM (≈ 3.56 µg/mL); in series [2] it was more than 10 µM; in series [3] it was 3.42 µM (≈ 1.12 µg/mL).
Consider `CC1(C)S[C@@H]2[C@H](NC(=O)[C@H](N)c3ccccc3)C(=O)N2[C@H]1C(=O)O` [AMPICILLIN], for which the results for the MIC90 in the series with Escherichia coli and against Staphylococcus aureus were 1.18 µM (≈ 0.412 µg/mL) and 0.25 µM (≈ 0.0874 µg/mL), respectively.
Consider `O=C(/C=C/c1cccc([N+](=O)[O-])c1)c1ccc(N2CCCCC2)cc1`, for which the MIC90 (with Escherichia coli; against Staphylococcus aureus; against Mycobacteroides chelonae; against Candida albicans; in series [4]; in series [1]) was more than 10 µM throughout. The MIC90 (in series [2]; against Mycobacterium marinum; against Mycobacterium kansasii; in [3]; against Mycobacterium avium) was more than 10 µM in each case.
`CO[C@H]1/C=C/O[C@@]2(C)Oc3c(C)c(O)c4c(O)c(c(/C=N/N5CCN(C)CC5)c(O)c4c3C2=O)NC(=O)/C(C)=C\C=C\[C@H](C)[C@H](O)[C@@H](C)[C@@H](O)[C@@H](C)[C@H](OC(C)=O)[C@@H]1C` [RIFAMPIN]: the selectivity ratio in the series “in vitro” (vero) was determined as 2000. Further, the MIC90 is 0.19 µM (≈ 0.156 µg/mL) in series [1], more than 10 µM in [2] and 0.05 µM (≈ 0.0411 µg/mL) in series [3].
For `CSc1ccc(C(=O)/C=C/c2ccco2)cc1`, the MIC90 (against Escherichia coli; against Staphylococcus aureus; with Mycobacteroides chelonae; with Candida albicans; in [4]; in series [1]) was more than 10 µM throughout. In addition, the MIC90 (in [2]; in the series with Mycobacterium marinum; with Mycobacterium kansasii; in [3]; against Mycobacterium avium) was more than 10 µM each time.
